According to ChEMBL document CHEMBL1201862, “PubChem BioAssay data set” (2004):
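Interpolation was linear, between the two tested concentrations surrounding the appropriate level; five concentrations were tested over 48 hours in 96-well plates. GI50 is the concentration that inhibits growth by half.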 Activity calls are given as the source filed them. Cut-off read from the data, not from the text of the source: active = GI50 up to about 1.1 µM and inactive = higher.

Legend:
Experiment in all cases: growth of human tumour cells (NCI), 48 h
[1] = tested on: CCRF-CEM
[2] = tested on: KM12
[3] = tested on: SNB-19
[4] = tested on: MOLT-4
[5] = tested on: RXF 393
[6] = tested on: HOP-62
[7] = tested on: MDA-MB-231
[8] = tested on: SN12C
[9] = tested on: SF-539
[10] = tested on: UO-31
[11] = tested on: NCI/ADR-RES
[12] = tested on: UACC-257
[13] = tested on: DU-145
[14] = tested on: TK-10
[15] = tested on: BT-549
[16] = tested on: A498
[17] = tested on: SK-MEL-5
[18] = tested on: ACHN
[19] = tested on: SR
[20] = tested on: SNB-75

Measured: GI50

Cc1[nH]c2c(C)ccc(C)c2c1CC(=O)O
inactive: [1] 20 µM | [2] 32.2 µM | [3] 92 µM | [4] 26.5 µM | [5] > 100 µM | [6] 81.5 µM | [7] 13 µM | [8] 34.3 µM | [9] 94.2 µM | [10] 37 µM | [11] 54.6 µM | [12] 30.5 µM | [13] > 100 µM | [14] 57 µM | [15] 54.6 µM | [16] 57 µM | [17] 48.9 µM | [18] 59.4 µM

CC[N+]1(C)CCC(O)(c2ccc(OC)cc2)C(C(=O)c2ccc(OC)cc2)C1 (stereo not drawn)
inactive: [1] 2.02 µM | [2] 16 µM | [3] 32.1 µM | [4] 2.23 µM | [5] 7 µM | [6] 18.9 µM | [8] 18.2 µM | [9] 17.4 µM | [10] 18.7 µM | [12] 17.5 µM | [13] 15.9 µM | [19] 2.34 µM | [14] 4.51 µM | [15] 16 µM | [16] 17.6 µM | [17] 15.4 µM | [20] 13.7 µM | [18] 13.1 µM

Cn1c(Nc2ccccc2)c(/C=N\c2ccccc2)c(=O)n(C)c1=O
inactive: [1] > 100 µM | [2] 97.7 µM | [4] 61.5 µM | [5] 75.9 µM | [6] 22.5 µM | [7] 61.4 µM | [8] 69.3 µM | [9] 94 µM | [10] 54.2 µM | [11] 41 µM | [12] > 100 µM | [13] > 100 µM | [14] > 100 µM | [15] > 100 µM | [16] 80 µM

CCCCC(=O)Nc1ccc2cc(C(=O)OC)c(=O)[nH]c2n1
inactive: [1] 59.4 µM | [2] > 100 µM | [3] > 100 µM | [4] > 100 µM | [5] > 100 µM | [6] > 100 µM | [7] > 100 µM | [8] > 100 µM | [9] > 100 µM | [10] > 100 µM | [11] > 100 µM | [12] > 100 µM | [19] > 100 µM | [14] > 100 µM | [15] > 100 µM | [16] > 100 µM | [17] > 100 µM | [20] > 100 µM | [18] > 100 µM

CCSc1cc(C(=O)OC)c2n(c1=O)CCCC2
inactive: [1] > 100 µM | [2] > 100 µM | [3] > 100 µM | [4] > 100 µM | [5] > 100 µM | [6] > 100 µM | [7] > 100 µM | [8] > 100 µM | [9] > 100 µM | [10] > 100 µM | [11] > 100 µM | [12] > 100 µM | [13] > 100 µM | [14] > 100 µM | [15] > 100 µM | [16] > 100 µM | [17] > 100 µM | [20] > 100 µM | [18] > 100 µM

N#CC1(C#N)NC(c2ccccc2)C(C#N)(C#N)NC1c1ccccc1 (stereo not drawn)
inactive: [1] > 100 µM | [2] > 100 µM | [3] > 100 µM | [4] > 100 µM | [5] > 100 µM | [6] > 100 µM | [7] 25.9 µM | [8] > 100 µM | [9] > 100 µM | [10] > 100 µM | [11] > 100 µM | [12] > 100 µM | [13] > 100 µM | [14] > 100 µM | [15] > 100 µM | [16] > 100 µM | [17] > 100 µM | [20] > 100 µM | [18] > 100 µM

COc1ccc(/C(C)=N/NC(=S)N(C)C)c(O)c1
inactive: [1] 4.49 µM | [2] 4.92 µM | [3] 22 µM | [4] 4.57 µM | [6] 5.61 µM | [7] 5.96 µM | [8] 11.7 µM | [10] 5.65 µM | [12] 20.9 µM | [13] 11.5 µM | [19] 36.3 µM | [15] 18.9 µM | [17] 12.1 µM | [20] 43.8 µM | [18] 6.41 µM

Cc1cc(NC(=O)C(=O)Cc2cnc3ccccc3n2)c(S(=O)(=O)O)cc1Cl
inactive: [1] > 100 µM | [2] > 100 µM | [3] > 100 µM | [4] > 100 µM | [7] > 100 µM | [8] > 100 µM | [9] > 100 µM | [10] > 100 µM | [11] > 100 µM | [12] > 100 µM | [13] > 100 µM | [14] > 100 µM | [15] > 100 µM | [16] > 100 µM | [17] > 100 µM | [20] > 100 µM | [18] > 100 µM

c1ccc(C(NC2CCCCC2NCCNC2CCCCC2NC(c2ccccc2)(c2ccccc2)c2ccccc2)(c2ccccc2)c2ccccc2)cc1 (stereo not drawn)
inactive: [1] 42.4 µM | [2] 57.1 µM | [3] 74.6 µM | [4] 47.8 µM | [6] 34.1 µM | [7] > 100 µM | [8] > 100 µM | [9] 44 µM | [10] 20.4 µM | [12] > 100 µM | [13] 96.6 µM | [19] 81.7 µM | [14] 90.4 µM | [15] 17.5 µM | [16] 22.6 µM | [17] 39.5 µM | [18] 90.2 µM

CC1(C)OC[C@@H]([C@@]2(COC(c3ccccc3)(c3ccccc3)c3ccccc3)CC=CC(=O)O2)O1
inactive: [1] 33.3 µM | [2] 27.9 µM | [3] 58.3 µM | [4] 28.3 µM | [5] 24.2 µM | [6] 38.5 µM | [7] 41.7 µM | [8] 30.8 µM | [9] 37.2 µM | [10] 32.4 µM | [12] 43.5 µM | [13] 56.2 µM | [19] 33 µM | [14] 46.5 µM | [15] 24.2 µM | [16] 22 µM | [20] 14.2 µM | [18] 30.5 µM

CCOC(=O)C(=[N+]=[N-])C(=O)CN1C(=O)C2CC(C)=C(C)CC2C1O (stereo not drawn)
inactive: [1] > 100 µM | [2] > 100 µM | [3] > 100 µM | [4] > 100 µM | [5] > 100 µM | [6] > 100 µM | [9] > 100 µM | [10] > 100 µM | [11] > 100 µM | [12] > 100 µM | [13] > 100 µM | [19] > 100 µM | [14] > 100 µM | [15] > 100 µM | [17] > 100 µM | [20] > 100 µM | [18] > 100 µM

CCCCCc1c(CCCC)c(O)nc2nc(NC(=O)CCCC)ccc12
inactive: [1] > 100 µM | [2] > 100 µM | [3] > 100 µM | [4] > 100 µM | [5] > 100 µM | [6] > 100 µM | [7] > 100 µM | [8] > 100 µM | [9] > 100 µM | [10] > 100 µM | [11] > 100 µM | [12] > 100 µM | [19] 51.9 µM | [14] > 100 µM | [15] > 100 µM | [16] > 100 µM | [17] > 100 µM | [20] > 100 µM | [18] > 100 µM

FC(F)(F)C1(C(F)(F)F)OC(Cl)(Cl)C(Cl)(Cl)O1
inactive: [2] > 10 µM | [3] > 10 µM | [5] > 10 µM | [6] > 10 µM | [7] > 10 µM | [9] > 10 µM | [11] > 10 µM | [12] > 10 µM | [13] > 10 µM | [14] > 10 µM | [15] > 10 µM | [16] > 10 µM | [17] > 10 µM | [18] > 10 µM

CCOP(=O)(OCC)C(Cc1ccc(Cl)cc1)NS(=O)(=O)c1ccc(C)cc1 (stereo not drawn)
inactive: [1] > 100 µM | [2] > 100 µM | [3] > 100 µM | [4] > 100 µM | [5] > 100 µM | [6] > 100 µM | [7] > 100 µM | [8] 67.6 µM | [9] > 100 µM | [11] > 100 µM | [12] 35.5 µM | [13] > 100 µM | [14] > 100 µM | [15] > 100 µM | [16] > 100 µM | [17] > 100 µM | [18] > 100 µM

C=C1CCC([N+](=O)[O-])[C@](C)(N=O)CC[C@@H]2C1CC2(C)C (stereo partly drawn)
inactive: [1] 6.62 µM | [2] 24.5 µM | [3] 27.3 µM | [4] 20.5 µM | [6] 38.3 µM | [8] 32.4 µM | [10] 16.3 µM | [11] 22.8 µM | [12] 23 µM | [13] > 100 µM | [19] 8.57 µM | [14] 28.6 µM | [15] 14.4 µM | [17] 15.3 µM | [20] 18.9 µM | [18] 37 µM

O=c1c2ccc(S(=O)(=O)c3ccc4c(=O)n5c6ccccc6nc5c5cccc3c45)c3cccc(c32)c2nc3ccccc3n12
inactive: [2] > 100 µM | [3] 16.6 µM | [5] 14.3 µM | [6] 37.8 µM | [7] 19.4 µM | [8] > 100 µM | [9] 28.7 µM | [10] 39.9 µM | [11] > 100 µM | [12] > 100 µM | [13] 59.6 µM | [14] 21.8 µM | [15] 20 µM | [17] > 100 µM | [18] 15.2 µM
